Assay results from US11478474B2, “2-(3′-(hydroxymethyl)-1-methyl-5-((5-(2-methyl-4-(oxetan-3-yl)piperazin-1-yl)pyridin-2-yl)amino)-6-oxo-1,6-dihydro-[3,4′-bipyridin]-2′-yl)-7,7-dimethyl-7,8-dihydro-2H-cyclopenta[4,5]pyrrolo[1,2-a]pyrazin-1(6H)-one as a BTK inhibitor” (HUTCHISON MEDIPHARMA LIMITED, priority 2020, dated 2022).

Key:
[1] = target: phosphorylated BTK in Ramos cells (Homo sapiens (Human), UniProt Q06187); assay: Determination of phosphorylated BTK in Ramos cells (BTK phospho-Y223 HTRF); format: cell-based; details: anti-human IgM + hydrogen peroxide stimulation
Method in brief: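 Ramos cells starved 2 h in 1% FBS, then treated 1 h with compound (0.00018–3.0 μM, 0.3% DMSO). They were then stimulated 10 min at 37° C. with anti-human IgM (10 μg/mL) plus H2O2 (3.3 mM). Lysates read by BTK phospho-Y223 HTRF (665/615 nm ratio); IC50 fitted from inhibition normalized to stimulated and unstimulated controls.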

[2] = target: BTK recombinant protein (Homo sapiens (Human), UniProt Q06187); assay: Determination of biochemical BTK (Z'-LYTE kinase assay)
Method in brief: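 Human BTK recombinant kinase (3.32 nM final) was preincubated with compound for 30 min at 4 °C. Reaction ran 1 h at room temperature with Tyr01 FRET peptide (2 μM) and ATP (32 μM); development protease then added. Coumarin 445 nm/fluorescein 520 nm emission ratio (400 nm excitation) gave inhibition across 8 concentrations, 3000–1.37 nM.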

Sequence of phosphorylated BTK in Ramos cells (Q06187 whole entry): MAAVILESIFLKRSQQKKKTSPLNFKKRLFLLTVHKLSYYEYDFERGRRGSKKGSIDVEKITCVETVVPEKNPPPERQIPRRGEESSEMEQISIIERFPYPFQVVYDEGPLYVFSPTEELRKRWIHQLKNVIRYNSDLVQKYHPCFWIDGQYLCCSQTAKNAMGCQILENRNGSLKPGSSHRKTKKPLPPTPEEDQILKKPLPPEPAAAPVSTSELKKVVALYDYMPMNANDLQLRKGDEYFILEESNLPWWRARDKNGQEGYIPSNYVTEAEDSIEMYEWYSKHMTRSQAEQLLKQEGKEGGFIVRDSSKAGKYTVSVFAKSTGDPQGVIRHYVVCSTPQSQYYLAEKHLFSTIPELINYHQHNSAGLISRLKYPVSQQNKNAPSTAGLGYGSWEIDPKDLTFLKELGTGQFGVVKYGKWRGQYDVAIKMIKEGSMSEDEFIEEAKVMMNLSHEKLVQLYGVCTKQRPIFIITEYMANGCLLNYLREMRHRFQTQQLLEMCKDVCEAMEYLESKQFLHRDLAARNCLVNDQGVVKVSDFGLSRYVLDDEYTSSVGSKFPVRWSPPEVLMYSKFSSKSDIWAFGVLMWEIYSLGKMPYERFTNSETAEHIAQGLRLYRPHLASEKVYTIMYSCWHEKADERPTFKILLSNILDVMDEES
Sequence of BTK recombinant protein (Q06187 whole entry): as above

Row | SMILES | IC50 [1] [µM] | IC50 [2] [µM]
1 | C[C@H]1CN(CC#N)CCN1c1ccc(Nc2cc(-c3ccnc(-n4ccn5c6c(cc5c4=O)CC(C)(C)C6)c3CO)cn(C)c2=O)nc1 [Compound 102] | 0.002 | 0.011
2 | Cc1nn(-c2nccc(-c3cc(Nc4ccc(N5CCN(C6COC6)C[C@@H]5C)cn4)c(=O)n(C)c3)c2CO)c(=O)c2cc3c(n12)CC(C)(C)C3 [Compound 104] | 0.006 | 0.01
3 | C[C@H]1CN(C2COC2)CCN1c1ccc(Nc2cc(-c3ccnc(-n4ccn5c6c(cc5c4=O)CC(C)(C)C6)c3CF)cn(C)c2=O)nc1 [Compound 105] | 0.011 | 0.067
4 | CN(c1ccc(Nc2cc(-c3ccnc(-n4ncn5c6c(cc5c4=O)CC(C)(C)C6)c3CO)cn(C)c2=O)nc1)C1COC1 [Compound 106] | 0.001 | 0.012
5 | COCCN1CCn2nc(Nc3cc(-c4ccnc(-n5ncn6c7c(cc6c5=O)CC(C)(C)C7)c4CO)cn(C)c3=O)cc2C1 [Compound 107] | 0.002 | 0.012
6 | C[C@H]1CN(C#N)CCN1c1ccc(Nc2cc(-c3ccnc(-n4ccn5c6c(cc5c4=O)CC(C)(C)C6)c3CO)cn(C)c2=O)nc1 [Compound 108] | 0.001 | 0.007
7 | Cn1cc(-c2ccnc(-n3ccn4c5c(cc4c3=O)CC(C)(C)C5)c2CO)cc(Nc2ccc(N3CCC4C3CCN4C3COC3)cn2)c1=O (centres unmarked) [Compound 109] | 0.004 | 0.02
8 | COCCN1CCn2nc(Nc3cc(-c4ccnc(-n5ccn6c7c(cc6c5=O)CC(C)(C)C7)c4CO)cn(C)c3=O)cc2C1C (centres unmarked) [Compound 111] | 0.002 | 0.008
9 | CC1c2cc(Nc3cc(-c4ccnc(-n5ccn6c7c(cc6c5=O)CC(C)(C)C7)c4CO)cn(C)c3=O)nn2CCN1C1COC1 (centres unmarked) [Compound 112] | 0.003 | 0.005
10 | COCC(C)N1CCn2nc(Nc3cc(-c4ccnc(-n5ccn6c7c(cc6c5=O)CC(C)(C)C7)c4CO)cn(C)c3=O)cc2C1 (centres unmarked) [Compound 115] | 0.01 | 0.012
11 | COCCN1CCn2nc(Nc3cc(-c4ccnc(-n5ccn6c7c(cc6c5=O)CC(C)(C)C7)c4CO)cn(C)c3=O)cc2[C@@H]1C [Compound 116] | 0.011 | 0.01
12 | COCCN1CCn2nc(Nc3cc(-c4ccnc(-n5ccn6c7c(cc6c5=O)CC(C)(C)C7)c4CO)cn(C)c3=O)cc2[C@H]1C [Compound 117] | 0.007 | 0.004
13 | CC1c2cc(Nc3cc(-c4ccnc(-n5ncn6c7c(cc6c5=O)CC(C)(C)C7)c4CO)cn(C)c3=O)nn2CCN1C1COC1 (centres unmarked) [Compound 118] | 0.001 | 0.005
14 | COCCN1CCn2nc(Nc3cc(-c4ccnc(-n5ncn6c7c(cc6c5=O)CC(C)(C)C7)c4CO)cn(C)c3=O)cc2[C@@H]1C [Compound 119, 2-(3′-(hydroxymethyl)-5-((5-(2-methoxyethyl)-4-methyl-4,5,6,7-tetrahydropyrazolo[1,5-a]pyrazin-2-yl) amido)-1-methyl-6-oxo-1,6-dihydro-[3,4′-bispyridin]-2′-yl)-7,7-dimethyl-7,8-dihydro-2H-cyclopenta[4,5]pyrrolo[1,2-d][1,2,4]triazin-1(6H)-one optically Pure] | 0.002 | 0.007
15 | Cn1cc(-c2ccnc(-n3ncn4c5c(cc4c3=O)CC(C)(C)C5)c2CO)cc(Nc2cc3n(n2)CCN(C2COC2)C3)c1=O [Compound 122] | 0.007 | < 0.001
16 | C[C@H]1CN(C2COC2)C(=O)N1c1ccc(Nc2cc(-c3ccnc(-n4ccn5c6c(cc5c4=O)CC(C)(C)C6)c3CO)cn(C)c2=O)nc1 [Compound 123] | 0.009 | 0.013
17 | Cn1cc(-c2ccnc(-n3ccn4c5c(cc4c3=O)CC(C)(C)C5)c2CO)cc(Nc2cc3n(n2)CCN(C2COC2)C3)c1=O [Compound 124] | 0.007 | 0.006

Row | SMILES | IC50 [1] [µM] | IC50 [2] [µM]
18 | Cc1ccc(Nc2cc(-c3ccnc(-n4ccn5c6c(cc5c4=O)CC(C)(C)C6)c3CO)cn(C)c2=O)nc1 [Compound 125] | 0.021 | 0.033
19 | COc1ccc(Nc2cc(-c3ccnc(-n4ccn5c6c(cc5c4=O)CC(C)(C)C6)c3CO)cn(C)c2=O)nc1 [Compound 126] | 0.02 | 0.026
20 | C[C@@H](CNC1COC1)Nc1ccc(Nc2cc(-c3ccnc(-n4ccn5c6c(cc5c4=O)CC(C)(C)C6)c3CO)cn(C)c2=O)nc1 [Compound 127] | 0.018 | 0.01
21 | Cc1ccc(Nc2cc(-c3ccnc(-n4ncn5c6c(cc5c4=O)CC(C)(C)C6)c3CO)cn(C)c2=O)nn1 [Compound 132] | 0.028 | 0.051
22 | COc1ccc(Nc2cc(-c3ccnc(-n4ncn5c6c(cc5c4=O)CC(C)(C)C6)c3CO)cn(C)c2=O)nc1 [Compound 133] | 0.013 | 0.033
23 | Cn1cc(-c2ccnc(-n3ccn4c5c(cc4c3=O)CCC5)c2CO)cc(Nc2cc3n(n2)CCN(C2COC2)C3)c1=O [Compound 134] | 0.054 | 0.059
24 | Cn1cc(-c2ccnc(-n3ccn4c5c(cc4c3=O)CC(C)(C)C5)c2CO)cc(Nc2cc3n(n2)CCN(C#N)C3)c1=O [Compound 135, 2-((2′-(7,7-dimethyl-1-oxo-1,6,7,8-tetrahydro-2H-cyclopenta[4,5]pyrrolo[1,2-a]pyrazin-2-yl)-3′-(hydroxymethyl)-1-methyl-6-oxo-1,6-dihydro-[3,4′-bispyridin]-5-yl)amino)-6,7-dihydropyrazolo[1,5-a]pyrazin-5(4H)-nitrile] | 0.005 | 0.008
25 | C[C@H]1c2cc(Nc3cc(-c4ccnc(-n5ccn6c7c(cc6c5=O)CC(C)(C)C7)c4CO)cn(C)c3=O)nn2CCN1C1COC1 [Compound 136] | 0.005 | 0.004
26 | C[C@@H]1c2cc(Nc3cc(-c4ccnc(-n5ccn6c7c(cc6c5=O)CC(C)(C)C7)c4CO)cn(C)c3=O)nn2CCN1C1COC1 [Compound 137] | 0.004 | 0.006
27 | COC1CN(c2ccc(Nc3cc(-c4ccnc(-n5ncn6c7c(cc6c5=O)CC(C)(C)C7)c4CO)cn(C)c3=O)nc2)C1 [Compound 139] | 0.011 | 0.039
28 | Cn1cc(-c2ccnc(-n3ccn4c5c(cc4c3=O)CC(C)(C)C5)c2CO)cc(Nc2ccc(C3CN(C4COC4)C3)cn2)c1=O [Compound 140] | 0.011 | < 0.001
29 | Cn1cc(-c2ccnc(-n3ncn4c5c(cc4c3=O)CC(C)(C)C5)c2CO)cc(Nc2ccc(C3CN(C4COC4)C3)cn2)c1=O [Compound 141] | 0.013 | 0.014
30 | Cn1cc(-c2ccnc(-n3ccn4c5c(cc4c3=O)CCC5)c2CO)cc(Nc2cc3n(n2)CCN(C#N)C3)c1=O [Compound 142] | 0.06 | 0.051
31 | Cn1cc(-c2ccnc(-n3ncn4c5c(cc4c3=O)CC(C)(C)C5)c2CO)cc(Nc2cc3n(n2)CCN(C#N)C3)c1=O [Compound 143] | 0.005 | 0.004
32 | C[C@H]1CN(C2COC2)CCN1c1ccc(Nc2cc(-c3ccnc(-n4ncn5c(c(F)c6ccccc65)c4=O)c3CO)cn(C)c2=O)nc1 [Compound 149] | 0.008 | 0.019
33 | C[C@H]1CN(C2COC2)CCN1c1ccc(Nc2cc(-c3ccnc(-n4ncn5c6c(cc5c4=O)CCCCC6)c3CO)cn(C)c2=O)nc1 [Compound 150] | 0.012 | 0.012
34 | C[C@H]1CN(C2COC2)CCN1c1ccc(Nc2cc(-c3ccnc(-n4ncn5c(cc6ccccc65)c4=O)c3CO)cn(C)c2=O)nc1 [Compound 151] | 0.028 | 0.002
